# Laboratory results taken from a melting point compilation (Tetko et al.).
row,Structure (SMILES),melting point
1,C=C1CC2C(CCC3(C)C(=O)CCC23)C2(C)C=CC(=O)C=C12 (centres undefined),190 °C
2,Cc1ccccc1CCO,2 °C
3,CCOc1ccc(N=C=S)cc1,60 to 61 °C
4,CNC(N)=O,103 °C
5,O=Cc1ccncc1,-4 °C
6,O=C(Nc1ccc(Cl)cc1)c1cc(Cl)cc(Cl)c1O,142 °C
7,Cc1ccc(C(c2ccc(C)o2)c2cc(Br)cc(C)c2O)o1,198 to 199 °C
8,O=C(O)C12CC3CC(C1)CC(c1ccc([N+](=O)[O-])cc1)(C3)C2,197 to 200 °C
9,COC(=O)C1(C(=O)OC)Cc2ccccc2C(=O)O1,113 °C
10,Clc1c(Cl)c(Cl)c2c(c1Cl)OC(c1ccccc1)O2,115 °C
11,COc1cc([C@@H](O)[C@H](CO)Oc2c(OC)cccc2OC)cc(OC)c1OC,105 °C
12,FC(F)(F)C(F)(F)C(F)(F)C(F)(F)C(F)(F)C(F)(F)C(F)(F)C(F)(F)C(F)(F)C(F)(F)CCI,82 to 83 °C
13,Brc1cncc(Br)c1,112 °C
14,COC1(OC)CC[C@]2(C)[C@H]3CC[C@]4(C)C(=O)CC[C@@]4(O)[C@@H]3CC[C@@]2(C)C1,175 to 176 °C
15,O=c1occcc1O,93.8 °C
16,O=[N+]([O-])c1ccc2c(O)c(-c3cccc(-c4[nH]c5cc([N+](=O)[O-])ccc5c4O)c3)[nH]c2c1,266 °C
17,O=C(O)c1nccnc1C(=O)O,188 °C
18,CCCCCCCC(C)CC (centres undefined),-92.9 °C
19,CCc1cc(Cc2cc(CC)cc(C(C)(C)C)c2O)c(O)c(C(C)(C)C)c1,120 °C
20,c1ccc2c(c1)ccc1nc3ccc4ccccc4c3cc12,216 °C
21,N#Cc1ccnc(C#N)c1,90 °C
22,C#CC1(O)CCC2C3CCc4cc(O)ccc4C3CCC21C (centres undefined),141 °C

row,Structure (SMILES),melting point
1,CC(CC/C(=N/O)C(C)C)CC(=O)O (centres undefined),186 to 187 °C
2,CCCCCCCC(=O)Oc1c(I)cc(C#N)cc1I,59.5 °C
3,O=C1C2CCCC1CCC2,153 to 157 °C
4,O=C(O)CCCCl,16 °C
5,Cc1cc(O)c(C)c(O)c1,161 to 164 °C
6,NS(=O)(=O)c1cc2c(cc1Cl)NC(Cc1ccc(F)cc1)NS2(=O)=O (centres undefined),239 °C
7,Clc1cc(Cl)nc(-c2ccccc2)n1,96.9 °C
8,COc1c(F)cc(N)cc1F,79 °C
9,CC(=O)OCC(COC(C)=O)(COC(C)=O)COC(C)=O,83.5 °C
10,NC(=O)CCCCC1CCSS1 (centres undefined),128 °C
11,CC(C)CC1=C/C(=C/c2ccc(-c3cccc([N+](=O)[O-])c3)o2)C(=O)O1,164 °C
12,O=Cc1cc2cccnc2s1,142 to 143 °C
13,O=Cc1coc2ccc(Cl)cc2c1=O,162 to 168 °C
14,Nc1ccc(Cl)cc1C(F)(F)F,9 °C
15,Clc1ccc(I)cn1,97 °C
16,COc1cccc(F)c1C=O,59 °C
17,CC=CC=CC=CC=O,56.8 °C
18,COc1ccc(SSc2ccc(OC)cc2)cc1,40 to 42 °C
19,COc1ccc(Cl)cc1I,48 °C
20,Cc1c(Br)c(Br)c(O)c(Br)c1Br,195 to 200 °C
21,CCCCCCCCCCCCCC#N,19 °C
22,CCOC(=O)C1(c2ccccc2)CCN(C)CC1,270 °C

row,Structure (SMILES),melting point
1,COc1ccc(C(=O)Cn2cc([N+](=O)[O-])nc2C)cc1,250 to 252 °C
2,CCOC(=O)C1=C(C)NC(C)=C(C(=O)OCC)C1c1ccc2c(c1)OCO2,135 °C
3,CCOC(=O)/C(C#N)=C(/c1ccc([N+](=O)[O-])cc1)C(C(=O)OCC)C(=O)OCC,110 °C
4,COc1ccc2c(OC)cccc2c1,58.5 °C
5,NC(=S)NCCN1CCCCC1,107 to 110 °C
6,CC(=O)N1CCSC1C(=O)O (centres undefined),114 to 116 °C
7,COC(=O)c1ccc(Cl)nc1,86 °C
8,CCCCCCCCC(C)CC (centres undefined),-58 °C
9,CCOC(=O)C(C#N)c1cc(Cl)c([N+](=O)[O-])cc1[N+](=O)[O-] (centres undefined),109 °C
10,CC1C(=O)OC(C)(C)OC1=O,109 to 113 °C
11,O=C1C2=C(NC1C(=O)c1ccc(Br)cc1)Oc1c(c(=O)oc3ccccc13)C2c1ccc(Br)cc1 (centres undefined),230 °C
12,SCCCCS,-53.9 °C
13,CC(C)(C)N(NC(=O)c1ccccc1)C(=O)c1ccccc1C(F)(F)F,172 °C
14,Cc1nc(C)c(CO)s1,56 to 57 °C
15,CC(C)(C)NCCO,44 °C
16,CC(C)(C#N)N=NC(C)(C)C#N,102 °C
17,Cc1cc2ccccc2cc1CC(F)(F)F,75 to 75.5 °C
18,Cc1ccc(-c2cc(N)[nH]n2)cc1,153 to 154 °C
19,COc1cc(C(=O)O)c([N+](=O)[O-])c(OC)c1OC,166 to 169 °C
20,O=C(Cl)c1cc(-c2cccs2)on1,77 to 78 °C
21,COC(=O)c1cc(Oc2ccc(Cl)cc2Cl)ccc1[N+](=O)[O-],87 °C
22,CC1(C)C2CCC1(C)C(O)C2CCO (centres undefined),83 °C

row,Structure (SMILES),melting point
1,CCCCCCCCC=CCCCCCCCCOC(=O)OC1CCC2(C)C(=CCC3C2CCC2(C)C(C(C)CCCC(C)C)CCC32)C1 (centres undefined),20 °C
2,C#CC1(O)CCC2C3CCC4=CCCCC4C3C(=C)CC21CC (centres undefined),110 °C
3,CCCCCCCOO,35.5 °C
4,CC=Cc1cccc(OC)c1O,81 °C
5,CCOc1ccc(NC(=O)CN)cc1,100 °C
6,Cc1c2c(c(C)c3c1C(=O)C3)C(=O)C2,237 to 238 °C
7,O=C1c2ccccc2CC1Br (centres undefined),39 to 44 °C
8,O=CN(C=O)C=O,100 to 101 °C
9,CC(C)C(CO)CCC(C)(O)C(O)C(C)C (centres undefined),60 °C
10,CCOP(=S)(OCC)SCn1c(=O)oc2cc(Cl)ccc21,47.8 °C
11,CCOC(=O)c1cc2ccccc2oc1=S,91 °C
12,N#Cc1c(Cl)cccc1[N+](=O)[O-],121 °C
13,O=CC(C=O)c1ccc(Cl)cc1,137 to 143 °C
14,Nc1ccc(C(=O)O)cc1N,215 °C
15,O=C1OCCOC(=O)C2CCCCC2C(=O)OCCOC(=O)C2CCCCC12 (centres undefined),210 °C
16,Cc1ccc(NC(=S)Nc2ccc(C)cc2)cc1,183 °C
17,CCC(F)(F)C(=O)O,8 °C
18,N#Cc1c(OCC(F)(F)F)cccc1OCC(F)(F)F,116 °C
19,CN(N=Cc1ccc(F)cc1)P(=O)(N1CC1)N1CC1,106 °C
20,Oc1ccc2cc(Br)ccc2c1,128 °C
21,CCN(CC)C(=O)c1ccc(O)c(OC)c1,95 °C

# Now from value to compound:
row,melting point,Structure (SMILES)
1,153 to 156 °C,N#CC1CN(C(c2ccccc2)c2ccccc2)C1
2,28.5 °C,Sc1ccccc1S
3,283 °C,c1ccc(P(c2ccccc2)c2ccc3ccccc3c2-c2c(P(c3ccccc3)c3ccccc3)ccc3ccccc23)cc1
4,117 °C,O=C1OC(c2ccccc2)c2ccccc21 (centres undefined)
5,166 °C,Cc1ccc(/C=C2\CCC/C(=C\c3ccc(C)s3)C2=O)s1
6,81 °C,Cn1ccc2ccc(C=O)cc21
7,247 °C,Cc1ccc(/N=N/C2C(=O)NN(c3ccccc3)C2=O)cc1 (centres undefined)
8,120 to 121 °C,O=S(=O)(c1ccccc1)n1cc(Br)c2ccccc21
9,87 to 88 °C,Cc1cn(CCC(=O)O)c2ccccc12
10,176 °C,[O-][P+](c1ccccc1)(c1ccccc1)C1C=C(c2ccccc2)OC(c2ccccc2)=C1
11,114 °C,CC(C(O)c1ccc(O)cc1)N1CCC(Cc2ccccc2)CC1 (centres undefined)
12,108 °C,Cc1ccc(-c2onc(C(=O)c3ccc4ccccc4c3)c2S(=O)(=O)c2ccccc2)cc1
13,142 to 145 °C,O=C(c1ccccc1)c1ccc(N2CCOCC2)cc1
14,128 °C,O=C(c1cccs1)c1noc(-c2ccc3ccccc3c2)c1S(=O)(=O)c1ccccc1
15,99.5 to 102 °C,Nc1cccc(-c2ncccn2)c1
16,119 to 122 °C,CCOC(=O)c1sc(SCc2ccccc2)c2c1CC(C)(C)CC2=O
17,59.5 °C,O=C(c1ccccc1O)c1ccccc1O
18,171 °C,Ic1nccn1C(c1ccccc1)(c1ccccc1)c1ccccc1
19,314 °C,S=c1nnc(-c2ccccc2)c(Nc2ccccc2Cl)[nH]1

row,melting point,Structure (SMILES)
1,210 °C,Nc1cc(CCNC(=O)c2ccccc2)ccc1CCNC(=O)c1ccccc1
2,239 °C,COC(=O)C(C(=O)OC)=C1SC2=C(C(=O)c3ccccc3C2=O)N1c1ccccc1
3,114 °C,O=P(N1CC1)(N1CC1)N(N=Cc1ccccc1)c1ccccc1
4,206 to 207 °C,C=CCn1c(=S)[nH]c2ccccc2c1=O
5,74 °C,O=C(CC(=O)C(F)(F)F)c1ccc2ccccc2c1
6,300 °C,O=C1NN(c2ccccc2)C(=O)C1=Cc1ccc(F)cc1
7,236 °C,N#Cc1c(N2CCCC2)nc(N)c2c(-c3ccccc3)cc(-c3ccccc3)nc12
8,304 °C,Nc1ccc2c(c1)C(=O)c1ccccc1C2=O
9,332 °C,O=C(Nc1ccc(C#Cc2ccc(NC(=O)c3ccccc3)cc2)cc1)c1ccccc1
10,140 to 143 °C,NNC(=O)c1ccccc1-c1ccccc1
11,222 °C,FC(F)(F)c1nn2c(=S)nc(-c3ccccc3)nc2s1
12,105 to 106 °C,O=C1OC(=O)C2CC(c3ccccc3)CCC12 (centres undefined)
13,93 to 95 °C,O=Cc1cccc(N2CCOCC2)n1
14,113 °C,Cc1ccc(C(=O)c2nn(-c3ccccc3)/c(=N\N=Cc3ccco3)s2)cc1
15,198 to 200 °C,NC(=S)c1ccc(-c2ccccn2)s1
16,180 °C,NS(=O)(=O)c1ccc(N2CCCCS2(=O)=O)cc1
17,218 °C,COc1ccc(C(=O)NN=C(C)c2c(O)c3ccccc3n(-c3ccccc3)c2=O)cc1
18,97.5 °C,CCN(CC)c1ccc(N=Nc2ccccc2)cc1
